Like-named read-outs stand apart in the source and are kept apart here. Marks after values point to notes of the source that are not given here. Starred links: 1 amine or outer side, 2 acyl side, 3 side chain; linkers in the order of their positions; H or OH if unused. Non-standard residues stand in square brackets, D forms with d. Residues, ends and D or L forms follow the SMILES beside them. Groups on a side chain read outwards from the residue. *: point of attachment. C20 diacid = O=C(O)CCCCCCCCCCCCCCCCCCC(=O)*; γGlu = O=C(O)[C@H](CCC(=O)[*:2])N[*:1]; NMeI = CC[C@H](C)[C@H](NC)C(=O)O; AEEA = NCCOCCOCC(=O)O
Assays:
[1] = molecular target: T1, human CRHR2b (Homo sapiens, UniProt Q13324); test: human CRHR2b cell-based cAMP assay; details: cAMP assay, read-out: hCRHR2b Average EC50
T1 construct: expressed in transfected cells; host or cells: Chinese Hamster Ovary (CHO) cells, transient transfection
T1 sequence (Q13324 1-438 isoform Q13324-2): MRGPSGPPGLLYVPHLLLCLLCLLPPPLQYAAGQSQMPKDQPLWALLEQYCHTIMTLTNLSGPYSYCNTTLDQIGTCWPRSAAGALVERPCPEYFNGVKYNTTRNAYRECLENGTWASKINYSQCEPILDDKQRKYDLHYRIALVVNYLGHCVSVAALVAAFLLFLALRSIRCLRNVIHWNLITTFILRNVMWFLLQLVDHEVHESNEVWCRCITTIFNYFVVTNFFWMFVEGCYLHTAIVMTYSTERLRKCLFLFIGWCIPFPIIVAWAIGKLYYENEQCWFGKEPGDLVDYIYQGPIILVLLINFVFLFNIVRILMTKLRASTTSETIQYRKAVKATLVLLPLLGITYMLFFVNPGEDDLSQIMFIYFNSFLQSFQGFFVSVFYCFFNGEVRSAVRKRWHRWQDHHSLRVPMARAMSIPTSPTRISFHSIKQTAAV
Summary of the method: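 ED50 values are means ± SEM over several runs, curve-fitted from cAMP in pmol, calibrated against unlabeled-cAMP standards. Detection was HTRF competition, ratio 665/620 nm, after 30 min agonist exposure at 37 °C.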

[2] = system: UniNx db/db AAV renin mice; test: Uninephrectomized db/db AAV renin model of diabetic nephropathy; type: in vivo
Protocol: The uninephrectomized db/db adeno-associated viral (AAV) renin model represents a progressive model of diabetic kidney disease with hypertension driven by an AAV renin transgene (Am J Physiol Regul Integr Comp Physiol. 309(5):R467-74, (2015)).
The uninephrectomy (UniNx) surgery on female db/db mice on a C57BLKS/J background (obtained from Harlan Laboratories) is performed by Harlan Laboratories at 4 weeks of age with removal of the right kidney to accelerate the diabetic kidney disease. Animals are received at 5 weeks of age and housed in micro-isolator cages at 3 mice per cage and are on a 12 hour light/dark cycle. All db/db mice are fed ad libitum with Purina special diet 5008 and allowed free access to autoclaved water.
Mice are acclimated for 7 weeks prior to administration of AAV Renin (5×10^9 GC) intravenously by the retro-orbital sinus to induce persistent hypertension. Randomization by urine albumin to creatinine ratio (ACR), blood glucose and body weight is done at 15 weeks of age (a point at which renal disease and pathology are established in this model based on observations) into 2 groups of 12 saline control mice and 33 mice to receive Lisinopril treatment.
Dosing with Lisinopril (30 mg/L) begins at 16 weeks of age. After 2 weeks of Lisinopril treatment, the 33 mice are randomized by urine ACR, blood glucose and body weight into 4 groups (one group of 9 mice and 3 groups of 8 mice).
In the 4 groups of UniNx db/db AAV renin mice receiving Lisinopril treatment, either 0.9% physiological saline for injection (“saline control” N=9) or different dose levels of Example 4 (7.2, 24 or 72 nmol/kg, N=8 per dose level) are dosed at 0.2 mL s.c. per injection beginning at 18 weeks of age and continued 3 times weekly for 12 weeks. Albumin and creatinine are measured in urine with a Roche Hitachi Modular Analytics P analyzer with Roche reagents for detection of albumin and creatinine.
For all the groups, the parameters measured are body weight, kidney weight, heart weight, urine albumin to creatinine ratio, serum creatinine and renal pathology scores for mesangial matrix expansion, glomerular fibrosis, tubular regeneration, interstitial inflammation and interstitial fibrosis.
At 15 and 27 weeks of age, blood (30 to 50 uL) from all the UniNx db/db AAV Renin mice is obtained from the tail vein and dropped onto a Precision PCx blood glucose sensor electrode strip (Abbott Laboratories) for blood glucose determination with a MediSense Precision PCx glucometer (Abbott Laboratories). Blood glucose data is used to block the UniNx db/db mice into equivalent groups. Body weight is determined at baseline and at termination with a Metler Toledo Balance. The heart and kidney are removed at necropsy and weighed on a Metler Toledo Balance. Blood (500 ul) is collected from the retro-orbital sinus at termination under isoflurane anesthesia. The clotted blood is centrifuged to obtain serum. Serum is analyzed for creatinine on a Roche Hitachi Modular Analytics P analyzer with reagents from Roche.
Urine is collected by a spot collection method to collect urine over a 2-4 hr time period. An individual mouse is placed on top of a 96 well polypropylene microplate and then covered by a Plexiglas chamber with holes for breathing but no access to food or water. At the end of the time period, the urine is removed from the plate with a micropipette and placed on ice, centrifuged and subjected to albumin and creatinine analysis. Urine albumin, creatinine and glucose are determined on a Roche Hitachi Modular Analytics P analyzer. Urine creatinine is determined with the Creatinine Plus reagent by Roche. For urine albumin, the Roche Microalbumin assay is modified to adapt the calibration curve for measuring urine albumin in mice. Albuminuria was defined as albumin to creatinine ratio (ACR).
Kidneys are removed at study termination, fixed in formalin and processed for paraffin sectioning according to standard methodology. […]

[3] = Table 26, compounds of Example 9
[4] = CHO cells transfected with human CRHR2b, mean ± SEM of runs
[5] = Lisinopril plus Saline, after 12 weeks, scale none (0) to severe (5)
[6] = UniNx db/db AAV renin mice, Lisinopril plus Saline, after 12 weeks
[7] = UniNx db/db AAV renin mice, Lisinopril plus Saline, baseline

CC[C@H](C)[C@H](NC)C(=O)N[C@H](C(=O)N[C@H](C(=O)N[C@@H](CO)C(=O)N[C@@H](CC(C)C)C(=O)N[C@@H](CC(=O)O)C(=O)N[C@H](C(=O)N1CCC[C@H]1C(=O)N[C@H](C(=O)NCC(=O)N[C@@H](CC(C)C)C(=O)N[C@@H](CC(C)C)C(=O)N[C@@H](CCC(N)=O)C(=O)N[C@H](C(=O)N[C@@H](CC(C)C)C(=O)N[C@@H](CC(C)C)C(=O)N[C@@H](CCC(=O)O)C(=O)N[C@@H](CCC(N)=O)C(=O)N[C@@H](CCC(=O)O)C(=O)N[C@@H](CCCCN)C(=O)N[C@@H](CCC(N)=O)C(=O)N[C@@H](CCC(=O)O)C(=O)N[C@@H](CCCCN)C(=O)N[C@@H](CCC(=O)O)C(=O)N[C@@H](CCCCN)C(=O)N[C@@H](CCC(N)=O)C(=O)N[C@@H](CCC(N)=O)C(=O)N[C@@H](C)C(=O)N[C@@H](CCCCNC(=O)CC[C@H](NC(=O)COCCOCCNC(=O)COCCOCCNC(=O)CC[C@H](NC(=O)CC[C@H](NC(=O)CCCCCCCCCCCCCCCCCCC(=O)O)C(=O)O)C(=O)O)C(=O)O)C(=O)N[C@H](C(=O)N[C@@H](CC(N)=O)C(=O)N[C@@H](C)C(=O)N[C@@H](CCC(=O)O)C(=O)N[C@H](C(=O)N[C@@H](CC(C)C)C(=O)N[C@@H](C)C(=O)N[C@@H](CCC(N)=O)C(=O)N[C@H](C(N)=O)C(C)C)[C@@H](C)CC)[C@@H](C)O)[C@@H](C)CC)[C@@H](C)CC)C(C)C)[C@@H](C)O)C(C)C [Compound 66] (H-[NMeI]VTSLDVPIGLLQILLEQEKQEKEKQQAK([γGlu-AEEA-AEEA-γGlu-γGlu-C20 diacid])TNAEILAQV-NH2)
EC50 [1, 3]: 1.45 nM

CC[C@H](C)[C@H](NC)C(=O)N[C@H](C(=O)N[C@H](C(=O)N[C@@H](CO)C(=O)N[C@@H](CC(C)C)C(=O)N[C@@H](CC(=O)O)C(=O)N[C@H](C(=O)N1CCC[C@H]1C(=O)N[C@H](C(=O)NCC(=O)N[C@@H](CC(C)C)C(=O)N[C@@H](CC(C)C)C(=O)N[C@@H](CCC(N)=O)C(=O)N[C@H](C(=O)N[C@@H](CC(C)C)C(=O)N[C@@H](CC(C)C)C(=O)N[C@@H](CCC(=O)O)C(=O)N[C@@H](CCC(N)=O)C(=O)N[C@@H](CCC(=O)O)C(=O)N[C@@H](CCCCN)C(=O)N[C@@H](CCC(N)=O)C(=O)N[C@@H](CCC(=O)O)C(=O)N[C@@H](CCCCN)C(=O)N[C@@H](CCC(=O)O)C(=O)N[C@@H](CCCCN)C(=O)N[C@@H](CCC(N)=O)C(=O)N[C@@H](CCC(N)=O)C(=O)N[C@@H](C)C(=O)N[C@@H](CCCCNC(=O)COCCOCCNC(=O)COCCOCCNC(=O)CC[C@H](NC(=O)CC[C@H](NC(=O)CCCCCCCCCCCCCCCCCCC(=O)O)C(=O)O)C(=O)O)C(=O)N[C@H](C(=O)N[C@@H](CC(N)=O)C(=O)N[C@@H](C)C(=O)N[C@@H](CCC(=O)O)C(=O)N[C@H](C(=O)N[C@@H](CC(C)C)C(=O)N[C@@H](C)C(=O)N[C@@H](CCC(N)=O)C(=O)N[C@H](C(N)=O)C(C)C)[C@@H](C)CC)[C@@H](C)O)[C@@H](C)CC)[C@@H](C)CC)C(C)C)[C@@H](C)O)C(C)C [Example 5] (H-[NMeI]VTSLDVPIGLLQILLEQEKQEKEKQQAK([AEEA-AEEA-γGlu-γGlu-C20 diacid])TNAEILAQV-NH2)
EC50 [1, 4]: 1.01 ± 0.23 nM

CC[C@H](C)[C@H](NC)C(=O)N[C@H](C(=O)N[C@H](C(=O)N[C@@H](CO)C(=O)N[C@@H](CC(C)C)C(=O)N[C@@H](CC(=O)O)C(=O)N[C@H](C(=O)N1CCC[C@H]1C(=O)N[C@H](C(=O)NCC(=O)N[C@@H](CC(C)C)C(=O)N[C@@H](CC(C)C)C(=O)N[C@@H](CCC(N)=O)C(=O)N[C@H](C(=O)N[C@@H](CC(C)C)C(=O)N[C@H](C(=O)N[C@@H](CCC(=O)O)C(=O)N[C@@H](CCC(N)=O)C(=O)N[C@@H](CCC(=O)O)C(=O)N[C@@H](CCCCN)C(=O)N[C@@H](CCC(N)=O)C(=O)N[C@@H](CCC(=O)O)C(=O)N[C@@H](CCCCN)C(=O)N[C@@H](CCC(=O)O)C(=O)N[C@@H](CCCCN)C(=O)N[C@@H](CCC(N)=O)C(=O)N[C@@H](CCC(N)=O)C(=O)N[C@@H](C)C(=O)N[C@@H](CCCCNC(=O)COCCOCCNC(=O)COCCOCCNC(=O)CC[C@H](NC(=O)CC[C@H](NC(=O)CCCCCCCCCCCCCCCCCCC(=O)O)C(=O)O)C(=O)O)C(=O)N[C@H](C(=O)N[C@@H](CC(N)=O)C(=O)N[C@@H](C)C(=O)N[C@@H](CCC(=O)O)C(=O)N[C@H](C(=O)N[C@@H](CC(C)C)C(=O)N[C@@H](C)C(=O)N[C@@H](CCC(N)=O)C(=O)N[C@H](C(N)=O)C(C)C)[C@@H](C)CC)[C@@H](C)O)[C@@H](C)CC)[C@@H](C)CC)[C@@H](C)CC)C(C)C)[C@@H](C)O)C(C)C [Example 7] (H-[NMeI]VTSLDVPIGLLQILIEQEKQEKEKQQAK([AEEA-AEEA-γGlu-γGlu-C20 diacid])TNAEILAQV-NH2)
EC50 [1, 4]: 0.94 ± 0.05 nM

NCCCC[C@H](N[C@@H](CCc1ccccc1)C(=O)O)C(=O)N1CCC[C@H]1C(=O)O [Lisinopril]
Glomerular Fibrosis, pathology score [2, 5]: 1.4 ± 0.2 ^a
Interstitial Fibrosis, pathology score [2, 5]: 2.0 ± 0.3 ^
Interstitial Inflammation, pathology score [2, 5]: 1.1 ± 0.3 ^a
Mesangial Matrix Expansion, pathology score [2, 5]: 2.1 ± 0.1 ^a
Tubular Regeneration, pathology score [2, 5]: 2.0 ± 0.2 ^a
Albumin to Creatinine Ratio (ACR) ([2]; Lisinopril plus Saline, week 0 of treatment with Example 4): 15203 ± 2835 ^
Albumin to Creatinine Ratio (ACR) ([2]; Lisinopril plus Saline, week 1): 16491 ± 3362 ^
Albumin to Creatinine Ratio (ACR) ([2]; Lisinopril plus Saline, week 2): 16160 ± 4162 ^a
Albumin to Creatinine Ratio (ACR) ([2]; Lisinopril plus Saline, week 3): 13069 ± 3295 ^a
Albumin to Creatinine Ratio (ACR) ([2]; Lisinopril plus Saline, week 6): 11584 ± 3132 ^a
Albumin to Creatinine Ratio (ACR) ([2]; Lisinopril plus Saline, week 8): 12484 ± 4626 ^a
Albumin to Creatinine Ratio (ACR) ([2]; Lisinopril plus Saline, week 10): 20429 ± 4998 ^a
Albumin to Creatinine Ratio (ACR) ([2]; Lisinopril plus Saline, week 12): 19075 ± 6268 ^a
deaths over the course of the study ([2]; Lisinopril plus saline group (N=9)): 2
Final Blood Glucose [2, 6]: 466 mg/dL
Final Body Weight [2, 6]: 61.8 g
Heart Weight [2, 6]: 227 mgs
Kidney Weight [2, 6]: 392 mgs
Serum Creatinine [2, 6]: 0.130 mg/dL
Initial Blood Glucose [2, 7]: 444 mg/dL
Initial Body Weight [2, 7]: 61.6 g

IVLSLDVPIGLLQILLEQEKQEKEKQQAK*ENAQILAQV-NH2 [Compound 56, K* at position 29 bonded with ([2-(2-Amino-ethoxy)-ethoxy]-acetyl)2-γE-CO—(CH2)16—COOH; C-terminal primary amide]
EC50 [1, 3]: 1.17 nM

Source: patent US10894817B2, “Fatty acid modified urocortin-2 analogs for the treatment of diabetes and chronic kidney disease” (priority 2016, dated 2021)
